Converted amounts (≈) assume the structure as drawn.
Legend:
[1] = physchem; details: 25 °C, pH 7.4, aqueous buffer, thermodynamic from solid
Description: (§1) Solubility was measured as the thermodynamic solubility using a shake-flask approach. Here, DMSO was evaporated from the compound stock solution as the first step. The “dried” compounds were then placed into 10 mM sodium phosphate buffer, adjusted to pH 7.4, and equilibrated at 25 °C for 24 h. The samples were centrifuged, and the solution was analyzed by LC-MS/MS to determine the amount of compound in solution.

[2] = test system: human hepatocytes; experiment: Metabolic stability in human hepatocytes (HH CLint); assay type: in vitro ADME; details: 37 °C, 2 h
Description: Metabolic stability in human hepatocytes (HH CLint) was measured by incubating the cells with the test compound at 37 °C for 2 h. An aliquot of the mixture was taken at typically nine defined time points, and the metabolic reaction was stopped by adding ACN. The samples were centrifuged, and the supernatant was analyzed via LC-MS/MS. Intrinsic clearance (CLint) was calculated from the disappearance rate of the parent compound. ,

[3] = physchem; details: pH 7.4
Description: (§2) LogD was measured using the traditional shake-flask method, with up to ten compounds pooled together. The compounds were dissolved in 10 mM sodium phosphate buffer adjusted to pH 7.4 and an octanol phase (both phases were mixed for 2 h at room temperature). The concentrations in both phases were analyzed by liquid chromatography and quantitative tandem mass spectrometry (LC-MS/MS), and distribution coefficients were determined.

[4] = test system: human hepatocytes; experiment: Metabolite identification in human hepatocyte incubations; assay type: in vitro ADME; details: 4 μM
Description: Cryopreserved, pooled primary human, dog, and rat hepatocytes were obtained from BioIVT (previously Celsis IVT). L-15 Leibovitz buffer was placed in a water bath to reach 37 °C. Cryopreserved hepatocytes were transferred from a −150 °C freezer on dry ice and immediately immersed in a preheated water bath kept at 37 °C for thawing. When only a small ice crystal could be seen, the content was emptied into a 50 mL falcon tube filled with warm buffer (maximum four vials/falcon tube). The suspension was centrifuged at room temperature for 3 min at 50 g. The supernatant was removed, the pellet was resuspended in a small volume of buffer, and the falcon tube was refilled with buffer, followed by another centrifugation to wash away any remaining storage buffer. Thereafter, the supernatant was removed, and the pellet was dissolved in a small volume of buffer and diluted to a concentration of about 3–5 million cells/mL. After counting the cells using a Casy cell counter, the suspension was diluted to 1 million viable cells/mL and kept at room temperature until use. The viability cutoff was 80%.
An aliquot of 245 μL of hepatocyte suspension was added to a round-bottomed 96-deep-well plate using a manual multipipette. The deep-well plate was preincubated for 15 min at 37 °C and 13 Hz. Substrate solutions of the assay compounds were prepared by the robot in a 96-well plate as follows: 4 μL of 10 mM DMSO stock solution, followed by the addition of 96 μL of ACN:water (1:1, v:v) and mixing by shaking. 50 μL from each well were transferred to and combined in a new plate, resulting in 100 μL per well and a dilution of 1:1.
The reaction was started by the addition of 5 μL of 200 μM substrate solution to the preheated hepatocyte suspension, resulting in a final substrate concentration of 4 μM (0.04% DMSO, <0.5% ACN). The incubation was continued at 37 °C and 13 Hz. At each time point (0, 40, and 120 min), a 50 μL sample was taken out and quenched in 200 μL of cold ACN:methanol (1:1, v:v), and the stopped plates were centrifuged for 20 min (set at 4 °C and 4000 g). The supernatant was diluted by taking 50 μL and mixing it with 100 μL of water. Incubations of the positive controls, albendazole and dextromethorphan, were performed in parallel as described above.
Structural characterization of metabolites and metabolite profiling were performed using the Waters Acquity ultraperformance liquid chromatography (UPLC) system fitted to a Waters High-Resolution Mass Spectrometer (MS) (Xevo G2-S, Synapt G2-Si, or a Synapt XS MS). The Waters MS systems, equipped with an electrospray ionization (ESI) source, were operated in positive-ion sensitivity mode over a mass range m/z 50–1200 and in negative-ion sensitivity mode over a mass range m/z of 50–1200.
The reversed-phase gradient elution was performed on an Acquity U(H)-PLC BEH C18 column (2.1 × 100 mm, 1.7 μm, Waters) set at 45 °C. The mobile phases consisted of 0.1% FA in water (A) and ACN (B). […] The injection volume was 2 μL. The MS settings were optimized for the respective MS instrument. […] A scan time of 0.1 s was used, and data were acquired in centroid mode. Collision energy was set to “off” for the low-energy function, whereas in the high-energy MSe functions, the collision energies were typically ramped from 15 to 35 V in the trap cell, with constant collision energies of 20 V in their transfer cells. Cone voltage was set to 25 V for both low- and high-energy functions. For dedicated MS/MS, the m/z of the molecular ion was selected in the quadrupole, and the mass range for fragmentation analysis was typically set between 50 and 1200. The collision energies were either the same as those stated above for MSe data generation or optimized for a specific metabolite.

[5] = Thermodynamic solubility, shake-flask; details: 10 mM sodium phosphate buffer, 25 °C, pH 7.4, aqueous buffer, thermodynamic from solid
Description: as §1

[6] = LogD, shake-flask method (octanol / buffer pH 7.4); details: octanol/10 mM sodium phosphate buffer
Description: as §2

solubility at 24 h [5] [µM]	logD at 2 h [6]	Compound	solubility [1] [µM]	HH CLint [2] [μL/min/1E6]	logD [3]	Metabolites / metabolic pathways identified [4]
		Cn1ncc(NC(=O)C2CCCCC2C(=O)c2ccc(-c3cc[nH]n3)cc2)c1C(F)(F)F (stereo not shown) [Cmpd 25, Cn1ncc(NC(=O)[C@@H]2CCCC[C@H]2C(=O)c2ccc(-c3cc[nH]n3)cc2)c1C(F)(F)F]	80 (≈ 35.6 µg/mL)	7	3.6	amide hydrolysis was not detected
564 (≈ 237 µg/mL)	2	Cn1ncc(NC(=O)C2CCCCC2C(=O)c2ccc(-c3cc[nH]n3)cc2)c1C(N)=O (stereo not shown) [Cmpd 18, Cn1ncc(NC(=O)[C@@H]2CCCC[C@H]2C(=O)c2ccc(-c3cc[nH]n3)cc2)c1C(N)=O]		4		the only metabolite identified was the alcohol formed after the reduction of a ketone
		COc1cc(NC(=O)C2CCCCC2C(=O)c2ccc(-c3cc[nH]n3)cc2)ncn1 (stereo not shown) [Cmpd 17, COc1cc(NC(=O)[C@@H]2CCCC[C@H]2C(=O)c2ccc(-c3cc[nH]n3)cc2)ncn1]	22 (≈ 8.92 µg/mL)	22	3.9	ketone reduction, aliphatic hydroxylations, N-glucuronidation, amide hydrolysis, and combinations thereof
99 (≈ 42.3 µg/mL)	3	Cn1cc(NC(=O)C2CCCCC2C(=O)c2ccc(-c3cc[nH]n3)cc2)c(C(F)F)n1 (stereo not shown) [Cmpd 27, Cn1cc(NC(=O)[C@@H]2CCCC[C@H]2C(=O)c2ccc(-c3cc[nH]n3)cc2)c(C(F)F)n1]		9		amide hydrolysis was not detected
